Laboratory results as given in US20250171437A1 (Agios Pharmaceuticals,Inc., priority 2022, published 2025).

Biological target: T1, human PAH with the R408W mutation (A375 R408W cells) (Homo sapiens, UniProt P00439, R408W)
T1 construct: expressed in transfected cells
T1 sequence (P00439 1-452 R408W): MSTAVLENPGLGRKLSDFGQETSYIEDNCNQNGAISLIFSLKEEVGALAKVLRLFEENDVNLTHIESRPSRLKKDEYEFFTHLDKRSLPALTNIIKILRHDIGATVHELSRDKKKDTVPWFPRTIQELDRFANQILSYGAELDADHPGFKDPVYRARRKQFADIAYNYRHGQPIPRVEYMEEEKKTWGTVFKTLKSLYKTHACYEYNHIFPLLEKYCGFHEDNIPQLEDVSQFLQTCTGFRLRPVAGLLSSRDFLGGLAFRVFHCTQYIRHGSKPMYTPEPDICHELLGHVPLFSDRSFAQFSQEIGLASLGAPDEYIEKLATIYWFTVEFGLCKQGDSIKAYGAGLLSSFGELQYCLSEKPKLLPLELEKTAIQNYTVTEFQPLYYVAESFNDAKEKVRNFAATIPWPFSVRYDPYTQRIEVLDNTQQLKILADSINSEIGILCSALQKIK
Test: Cell Based Phenylalanine Flux Assay
Conditions: A375 R408W cells; 24 hrs with compound, then 20 μM sepiapterin and 800 μM 13C9,15N-Phenylalanine for 4 hours; 13C-Tyrosine by LC-MS; average where tested multiple times
Summary of the method: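 LC-MS quantitation of 13C-tyrosine in media gave AC50 values. Stable A375 R408W PAH cells were preincubated 24 h with compound, then fed 800 μM labelled Phe plus 20 μM sepiapterin for 4 h. Dose curves were 10-point, tested in duplicate, averaged over repeat runs.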

SMILES	AC50 [µM]
COc1cccc2oc([C@@H]3c4nc[nH]c4CCN3C(=O)c3nnc(-c4ccn(C)n4)o3)nc12 [Example 639, (S)-(4-(4-methoxybenzo[d]oxazol-2-yl)-6,7-dihydro-1H-imidazo[4,5-c]pyridin-5(4H)-yl)(5-(1-methyl-1H-pyrazol-3-yl)-1,3,4-oxadiazol-2-yl)methanone]	≤ 0.5
O=C(c1ccnn1C1CC1)N1CCc2[nH]cnc2[C@H]1c1nc2cccc(F)c2o1 [Example 727, (S)-(1-cyclopropyl-1H-pyrazol-5-yl)(4-(7-fluorobenzo[d]oxazol-2-yl)-6,7-dihydro-1H-imidazo[4,5-c]pyridin-5(4H)-yl)methanone]	0.5 to 1
COc1ccc2c(C(=O)N3CCc4[nH]cnc4[C@@H]3c3nc4cc(F)ccc4o3)cnn2c1 [Example 74, (R)-(4-(5-fluorobenzo[d]oxazol-2-yl)-6,7-dihydro-1H-imidazo[4,5-c]pyridin-5(4H)-yl)(6-methoxypyrazolo[1,5-a]pyridin-3-yl)methanone]	≥ 5
Cn1nc(C(F)(F)F)nc1C(=O)N1CCc2[nH]cnc2[C@H]1c1nc2cccc(F)c2o1 [Example 279, (S)-(4-(7-fluorobenzo[d]oxazol-2-yl)-6,7-dihydro-1H-imidazo[4,5-c]pyridin-5(4H)-yl)(1-methyl-3-(trifluoromethyl)-1H-1,2,4-triazol-5-yl)methanone]	0.5 to 1
O=C(c1nnc(-c2cccnc2)o1)N1CCc2[nH]cnc2[C@H]1c1nc2cc(F)ccc2o1 [Example 399, (S)-(4-(5-fluorobenzo[d]oxazol-2-yl)-6,7-dihydro-1H-imidazo[4,5-c]pyridin-5(4H)-yl)(5-(pyridin-3-yl)-1,3,4-oxadiazol-2-yl)methanone]	0.5 to 1
CC(C)(O)c1nc(C(F)F)c(C(=O)N2CCc3[nH]cnc3[C@@H]2c2nc3c(Br)cccc3o2)o1 [Example 432, (R)-(4-(4-bromobenzo[d]oxazol-2-yl)-6,7-dihydro-1H-imidazo[4,5-c]pyridin-5(4H)-yl)(4-(difluoromethyl)-2-(2-hydroxypropan-2-yl)oxazol-5-yl)methanone]	≤ 0.5
CC(C)(O)c1nc(Cl)c(C(=O)N2CCc3[nH]cnc3[C@H]2c2nc3ccc(F)cc3o2)o1 [Example 269, (S)-(4-chloro-2-(2-hydroxypropan-2-yl)oxazol-5-yl)(4-(6-fluorobenzo[d]oxazol-2-yl)-6,7-dihydro-1H-imidazo[4,5-c]pyridin-5(4H)-yl)methanone]	0.5 to 1
Cn1cc(-c2nnc(C(=O)N3CCc4[nH]cnc4[C@@H]3c3nc4cccc(C(F)(F)F)c4o3)o2)cn1 [Example 829, (R)-(5-(1-methyl-1H-pyrazol-4-yl)-1,3,4-oxadiazol-2-yl)(4-(7-(trifluoromethyl)benzo[d]oxazol-2-yl)-6,7-dihydro-1H-imidazo[4,5-c]pyridin-5(4H)-yl)methanone]	1 to 5
COCc1ccc2c(C(=O)N3CCc4[nH]cnc4[C@@H]3c3nc4cccc(F)c4o3)cnn2c1 [Example 266, (R)-(4-(7-fluorobenzo[d]oxazol-2-yl)-6,7-dihydro-1H-imidazo[4,5-c]pyridin-5(4H)-yl)(6-(methoxymethyl)pyrazolo[1,5-a]pyridin-3-yl)methanone]	≥ 5
CC(C)(C)c1nnc(C(=O)N2CCc3[nH]cnc3[C@H]2c2nc3c(F)ccc(F)c3o2)o1 [Example 852, (S)-(5-(tert-butyl)-1,3,4-oxadiazol-2-yl)(4-(4,7-difluorobenzo[d]oxazol-2-yl)-6,7-dihydro-1H-imidazo[4,5-c]pyridin-5(4H)-yl)methanone]	≤ 0.5
Cn1cc(-c2ccc3c(C(=O)N4CCc5[nH]cnc5[C@H]4c4nc5c(F)cccc5o4)cnn3c2)cn1 [Example 541, (S)-(4-(4-fluorobenzo[d]oxazol-2-yl)-6,7-dihydro-1H-imidazo[4,5-c]pyridin-5(4H)-yl)(6-(1-methyl-1H-pyrazol-4-yl)pyrazolo[1,5-a]pyridin-3-yl)methanone]	≤ 0.5
O=C(CCc1nccs1)N1CCc2[nH]cnc2[C@@H]1c1nc2c(F)cccc2o1 [Example 398, (R)-1-(4-(4-fluorobenzo[d]oxazol-2-yl)-6,7-dihydro-1H-imidazo[4,5-c]pyridin-5(4H)-yl)-3-(thiazol-2-yl)propan-1-one]	≥ 5
O=C(c1ccnn1CC(F)F)N1CCc2[nH]cnc2[C@@H]1c1nc2ccccc2o1 [Example 836, (R)-(4-(benzo[d]oxazol-2-yl)-6,7-dihydro-1H-imidazo[4,5-c]pyridin-5(4H)-yl)(1-(2,2-difluoroethyl)-1H-pyrazol-5-yl)methanone]	0.5 to 1
Cc1cccc2nc([C@H]3c4nc[nH]c4CCN3C(=O)c3cc(C(F)F)nn3C)oc12 [Example 736]	1 to 5
Cc1ccc2oc([C@H]3c4nc[nH]c4CCN3C(=O)c3ncnn3C)nc2c1 [Example 746, (R)-(1-methyl-1H-1,2,4-triazol-5-yl)(4-(5-methylbenzo[d]oxazol-2-yl)-6,7-dihydro-1H-imidazo[4,5-c]pyridin-5(4H)-yl)methanone]	1 to 5
COCc1ccc2c(C(=O)N3CCc4[nH]cnc4[C@H]3c3nc4cc(C)ccc4o3)cnn2c1 [Example 877, (S)-(6-(methoxymethyl)pyrazolo[1,5-a]pyridin-3-yl)(4-(5-methylbenzo[d]oxazol-2-yl)-6,7-dihydro-1H-imidazo[4,5-c]pyridin-5(4H)-yl)methanone]	1 to 5
O=C(c1nnc(-c2cnn(C3CCC3)c2)o1)N1CCc2[nH]cnc2[C@@H]1c1nc2c(F)ccc(F)c2o1 [Example 812, (R)-(5-(1-cyclobutyl-1H-pyrazol-4-yl)-1,3,4-oxadiazol-2-yl)(4-(4,7-difluorobenzo[d]oxazol-2-yl)-6,7-dihydro-1H-imidazo[4,5-c]pyridin-5(4H)-yl)methanone]	0.5 to 1
Cc1nc(-c2ccccn2)oc1C(=O)N1CCc2[nH]cnc2[C@H]1c1nc2cc(F)ccc2o1 [Example 31, (S)-(4-(5-fluorobenzo[d]oxazol-2-yl)-6,7-dihydro-1H-imidazo[4,5-c]pyridin-5(4H)-yl)(4-methyl-2-(pyridin-2-yl)oxazol-5-yl)methanone]	0.5 to 1
CC(C)(F)c1ncc(C(=O)N2CCc3[nH]cnc3[C@@H]2c2nc3cc(F)ccc3o2)o1 [Example 14, (R)-(4-(5-fluorobenzo[d]oxazol-2-yl)-6,7-dihydro-1H-imidazo[4,5-c]pyridin-5(4H)-yl)(2-(2-fluoropropan-2-yl)oxazol-5-yl)methanone]	1 to 5
O=C(c1nnc(-c2cnn(C(F)F)c2)o1)N1CCc2[nH]cnc2[C@@H]1c1nc2c(F)ccc(F)c2o1 [Example 802, (R)-(4-(4,7-difluorobenzo[d]oxazol-2-yl)-6,7-dihydro-1H-imidazo[4,5-c]pyridin-5(4H)-yl)(5-(1-(difluoromethyl)-1H-pyrazol-4-yl)-1,3,4-oxadiazol-2-yl)methanone]	0.5 to 1
O=C(c1nnc(-c2ncccc2F)o1)N1CCc2[nH]cnc2[C@@H]1c1nc2cccc(C(F)(F)F)c2o1 [Example 839, (R)-(5-(3-fluoropyridin-2-yl)-1,3,4-oxadiazol-2-yl)(4-(7-(trifluoromethyl)benzo[d]oxazol-2-yl)-6,7-dihydro-1H-imidazo[4,5-c]pyridin-5(4H)-yl)methanone]	0.5 to 1
Cn1ccc(-c2nnc(C(=O)N3CCc4[nH]cnc4[C@@H]3c3nc4cccc(C(F)(F)F)c4o3)o2)n1 [Example 831, (R)-(5-(1-methyl-1H-pyrazol-3-yl)-1,3,4-oxadiazol-2-yl)(4-(7-(trifluoromethyl)benzo[d]oxazol-2-yl)-6,7-dihydro-1H-imidazo[4,5-c]pyridin-5(4H)-yl)methanone]	0.5 to 1
O=C(c1oc(COC(F)(F)F)nc1C(F)F)N1CCc2[nH]cnc2[C@H]1c1nc2cc(F)ccc2o1 [Example 115, (S)-(4-(difluoromethyl)-2-((trifluoromethoxy)methyl)oxazol-5-yl)(4-(5-fluorobenzo[d]oxazol-2-yl)-6,7-dihydro-1H-imidazo[4,5-c]pyridin-5(4H)-yl)methanone]	0.5 to 1

Same assay, conditions: A375 cells expressing R408W PAH; 24 hrs with compound, then 20 μM sepiapterin and 800 μM 13C9,15N-Phenylalanine for 4 hours; 13C-Tyrosine by LC-MS; average where tested multiple times

SMILES	AC50 [µM]
Cn1cncc1-c1nnc(C(=O)N2CCc3[nH]cnc3C2c2nc3cc(F)ccc3o2)o1 (centres unmarked)	≥ 5
Cc1ccc2nc(C3c4nc[nH]c4CCN3C(=O)c3cnn4cc(CN(C)C)ccc34)oc2c1 (centres unmarked)	1 to 5
CC1(C)CN(C(=O)c2ocnc2C(F)F)C(c2nc3cc(F)ccc3o2)c2nc[nH]c21 (centres unmarked)	≥ 5
CC(C)(O)c1nc(Br)c(C(=O)N2CCc3[nH]cnc3C2c2nc3cc(F)ccc3o2)s1 (centres unmarked)	≥ 5
O=C(c1nnc(-c2ncccn2)o1)N1CCc2[nH]cnc2C1c1nc2cc(F)ccc2o1 (centres unmarked)	1 to 5
Cn1nc(C(C)(C)C)cc1C(=O)N1CCc2[nH]cnc2C1c1nc2ccccc2o1 (centres unmarked)	≥ 5
O=C(CCc1cnco1)N1CCc2[nH]cnc2C1c1nc2c(F)cccc2o1 (centres unmarked)	1 to 5
COc1ccc2oc(C3c4nc[nH]c4CCN3C(=O)c3cnn4cc(N5CCC(O)CC5)ccc34)nc2c1 (centres unmarked)	≥ 5
CC(C)(O)c1ncc(C(=O)N2CCc3[nH]cnc3C2c2nc3ccccc3o2)o1 (centres unmarked)	1 to 5
